These results are taken from patent US10130684B2, “Oral dissolving films for insulin administration, for treating diabetes” (PHARMEDICA LTD., priority 2011, dated 2018).

For the data set, the system named is cultured human buccal tissue (EpiOral). The data set can be described thus: In vitro buccal tissue permeation of insulin solutions with permeation enhancers. Format: in vitro ADME. An excerpt:
To enable in vitro study of insulin release, the films were applied onto EpiOral tissues (MatTek) according to the Drug Absorption Protocol (ORL-202 & ORL-606), incorporated herein by reference. EpiOral tissues consist of normal, human-derived epithelial cells, which have been cultured to form multilayered, highly differentiated models of the human buccal phenotypes. EpiOral is a multilayered tissue consisting of an organized basal layer and multiple non-cornified layers analog to native human buccal tissue.
Insulin solution (0.60 mg/mL) was prepared in phosphate buffer (pH 6.8) solution (PBS). The above mentioned potential permeation enhancers were dissolved in the insulin solution to make solutions with desired ratios given in the table below:
Briefly, experiments were conducted in 37° C. incubator with 0.9 mL of PBS in receptor. 3.5 mL of donor solutions (n=4 for each formulation) were placed in the donor compartments. […] were collected from the receptor at time periods of 0.5, 1.0, 2.0, 3.0, 4.0 and 6.0 h, and were later assayed using HPLC.

For the substance “polyoxyethylene (35) lauryl ether [Brij 35]”, under “Brij 35 as permeation enhancer”, the “increase of insulin release compared to the control (without a permeation enhancer)” value is listed as “about 5 times”. Further, the “permeation effectiveness for insulin among the 3 tested compounds” value (Brij 58, Brij 35, sodium glycocholate compared) was “highest permeation effectiveness”.
